Literature values in US20080014285A1, “METHOD OF TREATING NEURODEGENERATIVE BRAIN DISEASE WITH A COMPOSITE COMPRISING […] NANOPARTICLES AND A […] COMPOUND” (priority 2006, published 2008).

Legend:
[1] = test system: glutamate-induced nitric oxide related neurotoxicity
[2] = peripheral administration, hypermagnesemia
[3] = systemic administration; patients with intracranial hypertension
traumatic brain injury = conditions: administration no more than 12 hours post-trauma
dopaminergic neurons = conditions: low dose; PD

Question: With `CN(c1nc2ccccc2s1)C1CCN(C[C@H](O)COc2ccc(F)c(F)c2)CC1` [lubeluzole] as the compound, how does the “glutamate-induced nitric oxide related neurotoxicity” value [1] read?
Answer: Its value is “inhibits”.

Question: What does the source list for `O=S(=O)([O-])[O-].[Mg+2]` [magnesium sulfate]?
Answer: total and ionized CSF [Mg] [2]: only marginal increases; CSF ionized magnesium concentration [3]: failed to increase; increase of plasma magnesium levels [3]: > 50%

Question: Which results are given for `[Mg+2]` [magnesium]?
Answer: brain magnesium homeostasis (traumatic brain injury): restores brain magnesium homeostasis; motor and cognitive outcome (traumatic brain injury): profoundly improves both motor and cognitive outcome

Question: With VEGF as the compound, how does the “neuroprotection of dopaminergic neurons” value (dopaminergic neurons) read?
Answer: Its value is “neuroprotective”.
